Tested on: MC4L2 mice tumor
Assay: Sonography of MC4L2 mice tumor after injection of the free drug, with or without electrostatic field
Conditions: for trace of tumor after the second injection period: every 3 days
Procedure: Here, three injection periods of Cisplatin were carried out every 3 days for a group of mice having a MC4L2 mice tumor as an example of triple-positive breast cancer. About 20 mg/kg of Cisplatin was applied for a Control sample with a MC4L2 mice tumor without applying an electrostatic field.
Here, four injection periods of Doxorubicin were carried out every 3 days for a group of mice having a MC4L2 mice tumor as an example of triple-positive breast cancer. About 10 mg/kg of Doxorubicin was applied for a Control sample with a MC4L2 mice tumor without applying an electrostatic field. […] All sonography images were taken after about 10 days of treatments, and all drug injections were done every about 3 days.

Compound | tumor outcome in sonography images (about 1 mg/kg Doxorubicin followed by electrostatic field, sonography after about 10 days, FIG. 9B) | trace of tumor after the second injection period (about 1 mg/kg Doxorubicin per period, then DC electrostatic field 60 V to 120 V via conductive patch, sample mouse No. 2) | tumor outcome in sonography images (about 5 mg/kg Cisplatin followed by electrostatic field, FIG. 5B) | trace of tumor after the second injection period (about 5 mg/kg Cisplatin per period, then DC electrostatic field -60 V to -120 V via conductive patch, sample mouse No. 1) | reduction in tumor volume (about 20 mg/kg Cisplatin, without electrostatic field, FIG. 4B vs FIG. 4A)
COc1cccc2c1C(=O)c1c(O)c3c(c(O)c1C2=O)C[C@@](O)(C(=O)CO)C[C@@H]3O[C@H]1C[C@H](N)[C@H](O)[C@H](C)O1 [Doxorubicin] | removed completely | no observable trace of tumor | – | – | –
N.N.[Cl][Pt][Cl] [Cisplatin] | – | – | removed completely | no observable trace of tumor | about 60%

From patent US20210001138A1, “ELECTROSTATIC DRUG DELIVERY” (Nano Hesgarsazan Salamat Arya, priority 2019, published 2021)
